# Laboratory results: patent publication US6737383B1, “Herbicidal oxadiazolidines” (priority 1999, dated 2004)
# Tests used:
# morningglory = experiment: Test B pre/postemergence morningglory; assay type: in vivo, Ipomoea hederacea
# In short: (§1)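 Response is a visual 0-to-10 score relative to untreated plants, where 0 means no effect and 10 means complete control, taken twelve to sixteen days after application. Treatments went onto soil at planting and onto foliage of 1- to 4-leaf plants, using a surfactant-containing non-phytotoxic solvent.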
# wheat = experiment: Test B pre/postemergence wheat; assay type: in vivo, Triticum aestivum
# In short: as §1
# duck salad = experiment: Test B flood test duck salad; assay type: in vivo, Heteranthera limosa
# In short: (§2)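 Flood test on plants grown to the 2-leaf stage; treated plants kept in greenhouse twelve to sixteen days, then visually rated against controls on a 0 (no effect) to 10 (complete control) scale.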
# smallflower flatsedge = experiment: Test B flood test smallflower flatsedge; assay type: in vivo, Cyperus difformis
# In short: as §2
# wild oat = experiment: Test B pre/postemergence wild oat; assay type: in vivo, Avena fatua
# In short: as §1
# purple nutsedge = experiment: Test B pre/postemergence purple nutsedge; assay type: in vivo, Cyperus rotundus
# In short: as §1
# surinam grass = experiment: Test B pre/postemergence surinam grass; assay type: in vivo, Brachiaria decumbens
# In short: as §1
# crabgrass = experiment: Test B pre/postemergence crabgrass; assay type: in vivo, Digitaria sanguinalis
# In short: as §1
# rape = experiment: Test B pre/postemergence rape; assay type: in vivo, Brassica napus
# In short: as §1
# corn = experiment: Test B pre/postemergence corn; assay type: in vivo, Zea mays
# In short: as §1
# pigweed = experiment: Test B pre/postemergence pigweed; assay type: in vivo, Amaranthus retroflexus
# In short: as §1
# cocklebur = experiment: Test B pre/postemergence cocklebur; assay type: in vivo, Xanthium strumarium
# In short: as §1
# velvetleaf = experiment: Test B pre/postemergence velvetleaf; assay type: in vivo, Abutilon theophrasti
# In short: as §1
# sugar beet = experiment: Test B pre/postemergence sugar beet; assay type: in vivo, Beta vulgaris
# In short: as §1
# blackgrass = experiment: Test B pre/postemergence blackgrass; assay type: in vivo, Alopecurus myosuroides
# In short: as §1
# [1] = Postemergence, Rate 62 g/ha, scale 0 to 10, 0 is no effect, 10 is complete control
# [2] = Postemergence, Rate 125 g/ha, scale of 0 to 10 where 0 is no effect and 10 is complete control
# [3] = Postemergence, Rate 250 g/ha, scale of 0 to 10, 0 is no effect, 10 is complete control
# [4] = Postemergence, Rate 500 g/ha, scale of 0 to 10 where 0 is no effect and 10 is complete control
# [5] = Preemergence, Rate 62 g/ha, scale of 0 to 10 where 0 is no effect and 10 is complete control
# [6] = Preemergence, Rate 125 g/ha, scale of 0 to 10 where 0 is no effect and 10 is complete control
# [7] = Preemergence, Rate 250 g/ha, scale 0 to 10 (0 no effect, 10 complete control)
# [8] = Preemergence, Rate 500 g/ha, scale of 0 to 10 where 0 is no effect and 10 is complete control
# [9] = Rate 62 g/ha, flood test species, Pre-emergence, visual evaluation after twelve to sixteen days
# [10] = Rate 125 g/ha, under heading Pre-emergence, flood test species, visual evaluation after twelve to sixteen days
# [11] = Rate 250 g/ha, Pre-emergence (flood test species), scale 0 to 10, 0 is no effect, 10 is complete control
# [12] = Rate 500 g/ha, Pre-emergence section of Table B, 0 to 10 scale (0 no effect, 10 complete control)
compound,measurement,setting,value
CC(C)N(C(=O)n1oc(=O)n(CC(=O)C2CCC2)c1=O)c1ccc(F)cc1 [Compound 640],"Plant response rating, Morningglory",morningglory; [1],0
same,"Plant response rating, Morningglory",morningglory; [2],3
same,Morningglory plant response rating,morningglory; [3],6
same,"Plant response rating, Morningglory",morningglory; [4],6
same,Morningglory plant response rating,morningglory; [5],0
same,Morningglory plant response rating,morningglory; [6],0
same,"Plant response rating, Morningglory",morningglory; [7],0
same,"Plant response rating, Morningglory",morningglory; [8],0
same,"Plant response rating, Wheat",wheat; [1],0
same,"Plant response rating, Wheat",wheat; [2],0
same,Wheat plant response rating,wheat; [3],0
same,Wheat plant response rating,wheat; [5],0
same,Wheat plant response rating,wheat; [6],0
same,"Plant response rating, Wheat",wheat; [7],0
same,"Plant response rating, Wheat",wheat; [8],2
same,"Plant response rating, Ducksalad (0 to 10 scale, 0 is no effect, 10 is complete control)",duck salad; [9],0
same,"Ducksalad plant response rating (0 to 10 scale, 0 is no effect, 10 is complete control)",duck salad; [10],0
same,Ducksalad plant response rating,duck salad; [11],0
same,Ducksalad plant response rating,duck salad; [12],0
same,"Plant response rating, S. Flatsedge (0 to 10 scale, 0 is no effect, 10 is complete control)",smallflower flatsedge; [9],0
same,"S. Flatsedge plant response rating (0 to 10 scale, 0 is no effect, 10 is complete control)",smallflower flatsedge; [10],0
same,S. Flatsedge plant response rating,smallflower flatsedge; [11],0
same,S. Flatsedge plant response rating,smallflower flatsedge; [12],0
same,"Plant response rating, Wild oats",wild oat; [1],0
same,"Plant response rating, Wild oats",wild oat; [2],0
same,Wild oats plant response rating,wild oat; [3],0
same,Wild oats plant response rating,wild oat; [5],0
same,Wild oats plant response rating,wild oat; [6],0
same,"Plant response rating, Wild oats",wild oat; [7],3
same,"Plant response rating, Wild oats",wild oat; [8],6
same,"Plant response rating, Nutsedge",purple nutsedge; [1],0
same,"Plant response rating, Nutsedge",purple nutsedge; [2],0
same,Nutsedge plant response rating,purple nutsedge; [3],0
same,Nutsedge plant response rating,purple nutsedge; [5],0
same,Nutsedge plant response rating,purple nutsedge; [6],0
same,"Plant response rating, Nutsedge",purple nutsedge; [8],0
same,"Plant response rating, B. signalgrass",surinam grass; [1],0
same,"Plant response rating, B. signalgrass",surinam grass; [2],0
same,B. signalgrass plant response rating,surinam grass; [3],0
same,"Plant response rating, B. signalgrass",surinam grass; [4],4
same,B. signalgrass plant response rating,surinam grass; [5],0
same,B. signalgrass plant response rating,surinam grass; [6],2
same,"Plant response rating, B. signalgrass",surinam grass; [7],4
same,"Plant response rating, B. signalgrass",surinam grass; [8],9
same,"Plant response rating, Crabgrass",crabgrass; [1],0
same,"Plant response rating, Crabgrass",crabgrass; [2],2
same,Crabgrass plant response rating,crabgrass; [3],3
same,"Plant response rating, Crabgrass",crabgrass; [4],6
same,Crabgrass plant response rating,crabgrass; [5],3
same,Crabgrass plant response rating,crabgrass; [6],3
same,"Plant response rating, Crabgrass",crabgrass; [7],9
same,"Plant response rating, Crabgrass",crabgrass; [8],10
same,"Plant response rating, Rape",rape; [1],0
same,"Plant response rating, Rape",rape; [2],0
same,Rape plant response rating,rape; [3],0
same,"Plant response rating, Rape",rape; [4],0
same,Rape plant response rating,rape; [5],0
same,Rape plant response rating,rape; [6],0
same,"Plant response rating, Rape",rape; [7],3
same,"Plant response rating, Rape",rape; [8],6
same,"Plant response rating, Corn",corn; [1],0
same,"Plant response rating, Corn",corn; [2],0
same,Corn plant response rating,corn; [3],0
same,"Plant response rating, Corn",corn; [4],0
same,Corn plant response rating,corn; [5],0
same,Corn plant response rating,corn; [6],0
same,"Plant response rating, Corn",corn; [7],0
same,"Plant response rating, Corn",corn; [8],0
same,"Plant response rating, Redroot pigweed",pigweed; [1],0
same,"Plant response rating, Redroot pigweed",pigweed; [2],0
same,Redroot pigweed plant response rating,pigweed; [3],4
same,Redroot pigweed plant response rating,pigweed; [5],0
same,Redroot pigweed plant response rating,pigweed; [6],0
same,"Plant response rating, Redroot pigweed",pigweed; [7],2
same,"Plant response rating, Redroot pigweed",pigweed; [8],7
same,"Plant response rating, Cocklebur",cocklebur; [1],0
same,"Plant response rating, Cocklebur",cocklebur; [2],0
same,Cocklebur plant response rating,cocklebur; [3],2
same,"Plant response rating, Cocklebur",cocklebur; [4],5
same,Cocklebur plant response rating,cocklebur; [5],0
same,Cocklebur plant response rating,cocklebur; [6],0
same,"Plant response rating, Cocklebur",cocklebur; [7],0
same,"Plant response rating, Cocklebur",cocklebur; [8],0
same,"Plant response rating, Velvetleaf",velvetleaf; [1],0
same,"Plant response rating, Velvetleaf",velvetleaf; [2],3
same,Velvetleaf plant response rating,velvetleaf; [3],3
same,Velvetleaf plant response rating,velvetleaf; [5],0
same,Velvetleaf plant response rating,velvetleaf; [6],0
same,"Plant response rating, Velvetleaf",velvetleaf; [7],0
same,"Plant response rating, Velvetleaf",velvetleaf; [8],0
same,"Plant response rating, Sugarbeets",sugar beet; [1],0
same,"Plant response rating, Sugarbeets",sugar beet; [2],0
same,Sugarbeets plant response rating,sugar beet; [3],0
same,Sugarbeets plant response rating,sugar beet; [5],0
same,Sugarbeets plant response rating,sugar beet; [6],2
same,"Plant response rating, Sugarbeets",sugar beet; [7],6
same,"Plant response rating, Sugarbeets",sugar beet; [8],6
same,"Plant response rating, Blackgrass",blackgrass; [1],0
same,"Plant response rating, Blackgrass",blackgrass; [2],4
same,"Plant response rating, Blackgrass",blackgrass; [4],5
same,Blackgrass plant response rating,blackgrass; [5],0
same,Blackgrass plant response rating,blackgrass; [6],0
same,"Plant response rating, Blackgrass",blackgrass; [7],0
same,"Plant response rating, Blackgrass",blackgrass; [8],8
